Measured values published in patent US20230286998A1, “SUCCINATE SALTS OF OCTAHYDROTHIENOQUINOLINE COMPOUND AND CRYSTALS THEREOF” (KISSEI PHARMACEUTICAL CO., LTD., priority 2020, published 2023).
“Also recorded” adds a separate entry of the source. Counter-ions that a name gives are not always drawn.

Columns and labels:
Assay type in all cases: physicochemical
[1] = Stability Test 2: storage under an open condition at 40° C. and 75% relative humidity (powder X-ray diffraction, HPLC related substances, appearance); settings: 2 months; for Increased Amount of related substance: HPLC area normalization; for Change of Crystal form: powder X-ray diffraction
Protocol: (§1) The Form I crystal of the salt (A-1), the Form I crystal of the salt (A-2), the crystal of hydrochloride salt of the compound (B), the crystal of sebacate salt of the compound (B) and the crystal of adipate salt were stored under an open condition at 40° C. and 75% relative humidity, and the physical stability and the chemical stability of each crystal form were examined. The powder X-ray diffractions of the samples at the start of the specimens and 2 months later were measured in the same manner as in Test Example 1, and the physical stability of the crystal forms and the amounts of the related substances were measured using the following HPLC measurement conditions, thereby observing the chemical stability. At the same time, changes in appearance were also observed.
(§2) • Detector: Ultraviolet and visible absorptiometer/wavelength: 225 nm • Column: L-column2 ODS, 3 μm, 4.6×150 mm (manufactured by Chemicals Evaluation and Research Institute, Japan) • Column temperature: constant temperature around 30° C. • Flow rate: 1.0 mL/min • Mobile phase A: a solution (pH 6.9) in which potassium dihydrogen phosphate and dipotassium hydrogen phosphate are mixed in water so as to be each 10 mmol/L • Mobile phase B: acetonitrile • Mobile phase ratios • 0 to 25 minutes: mobile phase A/mobile phase B=79/21 • 25 to 45 minutes: mobile phase A/mobile phase B=79/21 to 25/75 (Gradient) • 45 to 50 minutes: mobile phase A/mobile phase B=25/75 • Injection volume: 5 μL • Sample cooler: 4° C. • Dissolution solvent: A mixed solution prepared by adding 20 parts of acetonitrile to 80 parts of a 10 mmol/L potassium dihydrogen phosphate aqueous solution adjusted to pH 3. • Sample solution: A liquid obtained by dissolving the specimen in the dissolution solvent and adjusting to about 1.0 mg/mL as the compound (B).
(§3) Excluding the peaks derived from the blank, the peak areas of the respective peaks were measured by an automatic integration method, and the values thereof were determined by an area normalization method.

[2] = Stability Test 1: storage under an open condition at 60° C. (powder X-ray diffraction, HPLC related substances, appearance); settings: 2 months; for Increased Amount of related substance: HPLC area normalization; for Change of Crystal form: powder X-ray diffraction
Protocol: as §1, with “hydrochloric acid” for “hydrochloride salt”, “60° C.,” for “40° C. and 75% relative humidity,”
as §2, with “a 20” for “a 10”
as §3

[3] = Water adsorption and desorption test (IGA-Sorp); settings: 25° C.
Protocol: The water adsorption and desorption behaviors of the Form I crystal of the salt (A-1), the crystal of hydrochloride salt of the compound (B) and the crystal of sebacate salt of the compound (B) were measured using IGA-Sorp (manufactured by HIDEN isochema) under the following conditions. The water adsorption and desorption isotherm of the Form I crystal of the salt (A-1) is shown in FIG. 11, and the water adsorption and desorption isotherm of hydrochloride salt of the compound (B) is shown in FIG. 12.
• Form I crystal of salt (A-1): 14.7 mg • Crystal of hydrochloride salt of compound (B): 10.4 mg • Crystal of sebacate salt of compound (B): 13.2 mg
Each specimen was placed in a water adsorption and desorption measurement device. The temperature and the humidity were set to 25° C./40% RH or 50% RH, and equilibration was conducted for 60 minutes or more to stabilize the mass.
The mass of each specimen subjected to mass equilibration was continuously measured while changing the relative humidity at every 5% RH in adsorption and desorption.
The mass % was expressed as a mass percentage of a mass change before and after adsorption (or desorption) based on a dry sample.

[4] = listed as Forn I crystal of the salt (A-2), Monosuccinate Salt

chemical stability (in words) [1] | Increased Amount of related substance [1] | Change of Crystal form ([1]; Sesquisuccinate Monohydrate) | chemical stability (in words) [2] | Increased Amount of related substance [2] | Change of Crystal form ([2]; Sesquisuccinate Monohydrate) | Change of water amount at adsorption ([3]; 50-90% RH, based on a dry sample) [mass %] | Change of water amount at desorption ([3]; 90-0% RH, based on a dry sample) [mass %] | hygroscopicity (in words) ([3]; water adsorption and desorption) | Change of Crystal form ([1]; Monosuccinate Salt) | Appearance ([2]; Monosuccinate Salt) | Appearance [2, 4] | Change of Crystal form ([2]; Monosuccinate Salt) | Change of Crystal form [2, 4] | SMILES | Appearance ([1]; Sesquisuccinate Monohydrate) | Appearance ([2]; Sesquisuccinate Monohydrate) | Appearance ([1]; Monosuccinate Salt)
chemically stable | +0.01% | No change in crystal form | chemically stable | No increase | No change in crystal form | 0.3 | 0.8 | does not exhibit hygroscopicity |  |  |  |  |  | CCCN(C(=O)NCCN(C)C)C(=O)[C@@H]1C[C@@H]2Cc3c(sc(N)c3C#N)C[C@H]2N(C)C1 [Form I crystal of the salt (A-1), 1-{[(4aR,6R,8aR)-2-Amino-3-cyano-8-methyl-4,4a,5,6,7,8,8a,9-octahydrothieno[3,2-g]quinolin-6-yl]carbonyl}-3-[2-(dimethylamino)ethyl]-1-propylurea Sesquisuccinate Monohydrate] | no change in appearance; also recorded: No change in white | almost no change in appearance; also recorded: White (A slight coloration | 
chemically stable | No increase |  | chemically stable | −0.05% |  |  |  |  | No change in crystal form | almost no change in appearance | White (A slight coloration | No change in crystal form | No change | CCCN(C(=O)NCCN(C)C)C(=O)[C@@H]1C[C@@H]2Cc3c(sc(N)c3C#N)C[C@H]2N(C)C1.O=C(O)CCC(=O)O [Form I crystal of the salt (A-2), 1-{[(4aR,6R,8aR)-2-Amino-3-cyano-8-methyl-4,4a,5,6,7,8,8a,9-octahydrothieno[3,2-g]quinolin-6-yl]carbonyl}-3-[2-(dimethylamino)ethyl]-1-propylurea Monosuccinate Salt] |  |  | no change in appearance; also recorded: No change in white
